{"source": "patent US4255421A", "about": "“Fortimicin aminoglycosides, process for production thereof, and use thereof” (Kowa Company, Ltd., priority 1978, dated 1981)", "assay_type_in_all_cases": "cell-based", "key": {"[1]": {"tested_on": "Staphylococcus aureus 209P", "assay": "antibacterial spectra (Table 1)"}, "[2]": {"tested_on": "Bacillus subtilis ATCC 6633", "assay": "antibacterial spectra (Table 1)"}, "Bacillus cereus": {"tested_on": "Bacillus cereus", "assay": "antibacterial spectra (Table 1)"}, "Bacillus anthracis": {"tested_on": "Bacillus anthracis"}, "Streptococcus faecalis": {"tested_on": "Streptococcus faecalis", "assay": "antibacterial spectra (Table 1)"}, "Escherichia coli NIHJ": {"tested_on": "Escherichia coli NIHJ", "assay": "antibacterial spectra (Table 1)"}, "Escherichia coli ML1410": {"tested_on": "Escherichia coli ML1410", "assay": "antibacterial spectra (Table 1)"}, "Proteus vulgaris OX-19": {"tested_on": "Proteus vulgaris OX-19", "assay": "antibacterial spectra (Table 1)"}, "[3]": {"tested_on": "Klebsiella pneumoniae PCI 602", "assay": "antibacterial spectra (Table 1)"}, "[4]": {"tested_on": "Pseudomonas aeruginosa Shibata", "assay": "antibacterial spectra (Table 1)"}, "[5]": {"tested_on": "Pseudomonas aeruginosa A3", "assay": "antibacterial spectra (Table 1)"}, "[6]": {"tested_on": "Pseudomonas aeruginosa No. 12", "assay": "antibacterial spectra (Table 1)"}, "[7]": {"tested_on": "Pseudomonas aeruginosa TI-13", "assay": "antibacterial spectra (Table 1)"}, "[8]": {"tested_on": "Pseudomonas aeruginosa K-11", "assay": "antibacterial spectra (Table 1)", "conditions": "Pseudomonas aeruginosa K-11 (resistant to kanamycin)"}, "[9]": {"tested_on": "Pseudomonas aeruginosa No. 157", "assay": "antibacterial spectra (Table 1)"}, "[10]": {"tested_on": "Pseudomonas aeruginosa No. 315", "assay": "antibacterial spectra (Table 1)", "conditions": "Pseudomonas aeruginosa No. 315 (resistant to gentamicin, tobramycin and amikacin)"}, "Proteus inconstans": {"tested_on": "Proteus inconstans", "assay": "antibacterial spectra (Table 1)"}, "Serratia marcescens": {"tested_on": "Serratia marcescens", "assay": "antibacterial spectra (Table 1)"}}, "data": [{"substance": "4-N-glycyl KA-6606VI", "values": [{"measurement": "antibacterial spectra", "setting": "[1]", "value": 0.39}, {"measurement": "antibacterial spectra", "setting": "[2]", "value": 0.20}, {"measurement": "antibacterial spectra", "setting": "Bacillus cereus", "value": 0.78}, {"measurement": "antibacterial spectra", "setting": "Bacillus anthracis", "value": 0.20}, {"measurement": "antibacterial spectra", "setting": "Streptococcus faecalis", "value": 25}, {"measurement": "antibacterial spectra", "setting": "Escherichia coli NIHJ", "value": 1.56}, {"measurement": "antibacterial spectra", "setting": "Escherichia coli ML1410", "value": 3.13}, {"measurement": "antibacterial spectra", "setting": "Proteus vulgaris OX-19", "value": 1.56}, {"measurement": "antibacterial spectra", "setting": "[3]", "value": 0.78}, {"measurement": "antibacterial spectra", "setting": "[4]", "value": 6.25}, {"measurement": "antibacterial spectra", "setting": "[5]", "value": 6.25}, {"measurement": "antibacterial spectra", "setting": "[6]", "value": 0.78}, {"measurement": "antibacterial spectra", "setting": "[7]", "value": 3.13}, {"measurement": "antibacterial spectra", "setting": "[8]", "value": 6.25}, {"measurement": "antibacterial spectra", "setting": "[9]", "value": 3.13}, {"measurement": "antibacterial spectra", "setting": "[10]", "value": 12.5}, {"measurement": "antibacterial spectra", "setting": "Proteus inconstans", "value": 1.56}, {"measurement": "antibacterial spectra", "setting": "Serratia marcescens", "value": 0.78}]}]}
